Assay results from patent publication US20220031680A1, “Donecopride As Neuroprotective Agent In the Treatment of Neurodegenerative Diseases” (priority 2018, published 2022).

System: C57Bl6/J mice challenged with an intracerebroventricular injection of Aβ1-42 oligomers (AβO)
Assay: Morris water maze (learning and long-term memory) in mice icv injected with AβO
Type: in vivo, mouse
Procedure: Briefly, 144 C57Bl6/J male mice (3 months of age) were received and housed (4 to 5 per cage) in quarantine during 7 days, or longer. Test items were dosed per os (through oral gavage) once daily at different concentrations from day −1 to day +17.
From days +3 to days +14, learning capacities and long-term memory were investigated in the MWM assay.
The different experimental groups are defined as follow: • GROUP A (vehicle CTRL): po vehicle AND icv injection of vehicle (n=12) • GROUP B (APO CTRL): po vehicle AND icv injection of AβO (n=12) • GROUP C (positive CTRL): po Donepezil subchronic AND icv injection of AβO (n=12) • GROUP D (Donecopride CTRL): po Donecopride (9 mg/kg) AND icv injection of vehicle (n=12) • GROUP E (Flucopride CTRL): po Flucopride (9 mg/kg) AND icv injection of vehicle (n=12) • GROUP F (Donecopride Treated): po Donecopride (1 mg/kg) AND icv injection of AβO (n=12) • GROUP G (Donecopride Treated): po Donecopride (3 mg/kg) AND icv injection of AβO (n=12) • GROUP H (Donecopride Treated): po Donecopride (9 mg/kg) AND icv injection of AβO (n=12) • GROUP I (Fluocopride Treated): po Flucopride (1 mg/kg) AND icv injection of AβO (n=12) • GROUP J (Flucopride Treated): po Flucopride (3 mg/kg) AND icv injection of AβO (n=12) • GROUP K (Flucopride Treated): po Flucopride (9 mg/kg) AND icv injection of AβO (n=12) • GROUP L (positive CTRL): ip Donepezil acute on test days AND icv injection of AβO (n=12)
For per os dosing, Donecopride and Flucopride were formulated by solubilization in 0.9% NaCl. Compound dosing (total volume of 200 μL) started one day before induction of the disease (through icv injection of AβO) and was done for 19 consecutive days.
Single intra-cerebroventricular injection of 144 mice with vehicle or APO (max. 24 mice per day, all mice randomized): under anesthesia (ip injection of a mixture of ketamine/xylasine at a dose of 110 and 15 mg/kg, respectively) AβO (1 μL), or vehicle (1 μL) were injected into the right lateral ventricle. Injections were made using 10 μL Hamilton micro syringes fitted with a 26-gauge needle. The procedure was terminated by a subcutaneous injection of metacam (analgesia) at a dose of 5 mg/kg. Animals were then placed individually in their home-cage and the cage was placed in a heated cabinet until the animal has fully recovered. Animals were carefully monitored to control recovery after anesthesia.
Preparation of APO: Aβ1-42 was obtained from Bachem (ref H1368) (batch number: 1052301). The preparation of stable Aβ1-42 oligomers was performed as described in Garcia et al. (2010) J. Neurosci. 30:7516-7527. The oligomeric preparation (identified as Batch #2016-14) contained a mixture of stable trimers and tetramers of Aβ1-42, as well as monomeric forms of the peptide. All oligomer preparations used were previously characterized in terms of oligomer composition and in vitro neurotoxicity.
6 independent trials involving each 24 mice (i.e. 2 mice from each experimental group) for a total of 144 mice at day +4.
Detailed protocol: Habituation trials (visible platform)—The Morris water maze (MWM) was performed as described in Garcia et al. (2010) J. Neurosci. 30:7516-7527. The experimental apparatus consists of a circular water tank (diameter=100 cm; height=50 cm) containing water at 21° C. to a depth of 25 cm and rendered opaque to block the view past the water surface by adding an aqueous acrylic emulsion. A platform (diameter=10 cm) is used and placed at the midpoint of a quadrant. The pool is located in a test room, homogeneously illuminated at 100 lux. The swimming path of the animals is recorded using a video tracking system. Mice are brought to the experimental room for at least 30 min prior to testing, to enable acclimation to the experimental room conditions. Navigation to a visible platform is carried out before place-navigation, to evaluate visual and motor abilities of all mice. […]

[1] = ip acute on test day, icv AβO (Group L)
[2] = po sub-chronic, icv AβO (Group C)
[3] = 3 mg/kg/day po, icv AβO, day 5 of training
[4] = 9 mg/kg/day po, icv vehicle, day 5 of training
[5] = at all doses (1, 3, 9 mg/kg/day po), icv AβO

Row | SMILES | time spent in target vs opposite quadrant (MWM probe trial) (icv AβO) | mean crossing number (MWM probe trial) [1] | mean latency to target (MWM probe trial) [1] | mean escape latency (MWM learning trials) (ip acute on test day, icv AβO (Group L), day 5 of training) | mean crossing number (MWM probe trial) [2] | mean latency to target (MWM probe trial) [2] | mean escape latency (MWM learning trials) (po sub-chronic, icv AβO (Group C), after five days of training (day 5)) | mean escape latency (MWM learning trials) (1 mg/kg/day po, icv AβO, day 5 of training) | mean crossing number (MWM probe trial) (3 mg/kg/day po, icv AβO) | mean escape latency (MWM learning trials) [3] | improvement of learning capacities (MWM learning trials) (9 mg/kg/day po, icv AβO) | mean latency to target (MWM probe trial) (9 mg/kg/day po, icv AβO) | mean crossing number (MWM probe trial) (9 mg/kg/day po, icv vehicle) | mean latency to target (MWM probe trial) (9 mg/kg/day po, icv vehicle) | mean escape latency (MWM learning trials) (9 mg/kg/day po, icv vehicle, day 4 of training) | mean escape latency (MWM learning trials) [4] | AβO-induced impairment of long-term memory evaluated using the number of crossings [5] | mean latency to target (MWM probe trial) (1 mg/kg/day po, icv AβO) | AβO-induced impairment of long-term memory evaluated using the latency to target [5]
1 | COc1cc2c(cc1OC)C(=O)C(CC1CCN(Cc3ccccc3)CC1)C2 (stereo not drawn) [Donepezil, reference compound] | failed to improve | 3.8±0.4 | 13.3 ± 2.3 s | 13.4 ± 1.5 s | 3.7±0.4 | 14.6 ± 2.7 s | 14.7 ± 1.9 s |  |  |  |  |  |  |  |  |  |  |  | 
2 | COc1cc(N)c(F)cc1C(=O)CCC1CCN(CC2CCCCC2)CC1 [Flucopride] | did not improve |  |  |  |  |  |  | 13.1 ± 1.1 s | 4.1±0.6 | 12.5 ± 1.1 s | had no effect | 10.7 ± 1.9 s | 4.6±0.7 | 12.0 ± 2.1 s | 14.2 ± 1.9 s | 16.3 ± 2.0 s | inhibition |  | 
3 | COc1cc(N)c(Cl)cc1C(=O)CCC1CCN(CC2CCCCC2)CC1 [Donecopride] | did not improve |  |  |  |  |  |  |  | 5.1±0.6 | 12.7 ± 1.5 s |  |  | 4.6±0.5 | 7.2 ± 1.5 s |  | 13.0 ± 1.7 s | inhibition | 9.3 ± 1.4 s | inhibition
